ChEMBL document CHEMBL3885861, “Open TG-GATES”

Species on record: Rattus norvegicus
Experiment: Open TG-GATES - Regimen: Daily Repeat
Type: toxicity, organism-based, Sprague-Dawley
Parameters: regimen Daily Repeat, gender Male, age 6 weeks
Settings: in vivo, po, 100 mg/kg, route gavage, dose level Middle; for APTT / Bas / Eos / Fbg / Hb / Ht / Lym / MCH / MCHC / MCV / Mono / Neu / PT / Plat / RBC / Ret / WBC: tissue Blood; for KIDNEY_L / KIDNEY_R / KIDNEY_TOTAL: tissue Kidney; for LIVER: tissue Liver; for A/G / ALP / ALT / AST / BUN / CRE / Ca / Cl / DBIL / GLC / IP / K / LDH / Na / PL / RALB / TBIL / TC / TG / TP / gamma-GTP: tissue Plasma

## O=C(O)COc1nn(Cc2ccccc2)c2ccccc12 [BENDAZAC]
72 h, time 3 day
  TERMINAL_BW: 231.3 g
  APTT: 17.2 s
  Bas: 0%
  Eos: 1%
  Fbg: 205 mg/dL
  Hb: 13.5 g/dL
  Ht: 40.4%
  Lym: 80.6%
  MCH: 21.6 pg
  MCHC: 33.4%
  MCV: 64.8 fL
  Mono: 6.8%
  Neu: 11.8%
  PT: 11.8 s
  Plat: 116.4 x10_4/uL
  RBC: 624.4 x10_4/ul
  Ret: 7.1%
  WBC: 112.6 x10_2/uL
  KIDNEY_L: 1 g
  KIDNEY_R: 1.1 g
  KIDNEY_TOTAL: 2.1 g
  LIVER: 11.7 g
  A/G: 2
  ALP: 987.2 IU/L
  ALT: 39.8 IU/L
  AST: 65.6 IU/L
  BUN: 15.8 mg/dL
  CRE: 0.6 mg/dL
  Ca: 10.8 mg/dL
  Cl: 104.2 meq/L
  DBIL: 0.048 mg/dL
  GLC: 199.8 mg/dL
  IP: 7 mg/dL
  K: 4.5 meq/L
  LDH: 107.6 IU/L
  Na: 140 meq/L
  PL: 153.6 mg/dL
  RALB: 3.8 g/dL
  TBIL: 0.4 mg/dL
  TC: 82 mg/dL
  TG: 79.8 mg/dL
  TP: 5.7 g/dL
  gamma-GTP: 1 IU/L
[…], time 7 day
  TERMINAL_BW: 259.9 g
  APTT: 17.3 s
  Bas: 0%
  Eos: 1.2%
  Fbg: 229.2 mg/dL
  Hb: 14.1 g/dL
  Ht: 41%
  Lym: 76.8%
  MCH: 21.7 pg
  MCHC: 34.3%
  MCV: 63.2 fL
  Mono: 8.4%
  Neu: 14%
  PT: 11.7 s
  Plat: 139.2 x10_4/uL
  RBC: 649.8 x10_4/ul
  Ret: 6.8%
  WBC: 114.5 x10_2/uL
  KIDNEY_L: 1.2 g
  KIDNEY_R: 1.1 g
  KIDNEY_TOTAL: 2.3 g
  LIVER: 13.1 g
  A/G: 2
  ALP: 927.8 IU/L
  ALT: 31.6 IU/L
  AST: 55.8 IU/L
  BUN: 18.8 mg/dL
  CRE: 0.5 mg/dL
  Ca: 11.1 mg/dL
  Cl: 105.6 meq/L
  DBIL: 0.014 mg/dL
  GLC: 206 mg/dL
  IP: 6.6 mg/dL
  K: 4.4 meq/L
  LDH: 110.8 IU/L
  Na: 140.6 meq/L
  PL: 141 mg/dL
  RALB: 3.8 g/dL
  TBIL: 0.4 mg/dL
  TC: 71.8 mg/dL
  TG: 108.6 mg/dL
  TP: 5.7 g/dL
  gamma-GTP: 1 IU/L
[…], time 14 day
  TERMINAL_BW: 309.7 g
  APTT: 17.7 s
  Bas: 0%
  Eos: 1%
  Fbg: 213.4 mg/dL
  Hb: 14.6 g/dL
  Ht: 43.2%
  Lym: 83.2%
  MCH: 20.5 pg
  MCHC: 33.9%
  MCV: 60.4 fL
  Mono: 4.8%
  Neu: 11.4%
  PT: 11.4 s
  Plat: 126.3 x10_4/uL
  RBC: 715 x10_4/ul
  Ret: 2.9%
  WBC: 124.2 x10_2/uL
  KIDNEY_L: 1.2 g
  KIDNEY_R: 1.3 g
  KIDNEY_TOTAL: 2.5 g
  LIVER: 14.8 g
  A/G: 1.6
  ALP: 909.2 IU/L
  ALT: 32.2 IU/L
  AST: 63 IU/L
  BUN: 18.8 mg/dL
  CRE: 0.6 mg/dL
  Ca: 10.3 mg/dL
  Cl: 106 meq/L
  DBIL: 0.04 mg/dL
  GLC: 198.6 mg/dL
  IP: 6.5 mg/dL
  K: 4.5 meq/L
  LDH: 108 IU/L
  Na: 140.8 meq/L
  PL: 145.6 mg/dL
  RALB: 3.8 g/dL
  TBIL: 0.4 mg/dL
  TC: 68 mg/dL
  TG: 125.4 mg/dL
  TP: 6.2 g/dL
  gamma-GTP: 1.8 IU/L
[…], time 28 day
  TERMINAL_BW: 386.1 g
  APTT: 18.1 s
  Bas: 0%
  Eos: 1.2%
  Fbg: 216.6 mg/dL
  Hb: 15.6 g/dL
  Ht: 45.8%
  Lym: 87%
  MCH: 19.5 pg
  MCHC: 34%
  MCV: 57.2 fL
  Mono: 2.2%
  Neu: 9%
  PT: 12 s
  Plat: 113.7 x10_4/uL
  RBC: 801.2 x10_4/ul
  Ret: 2.2%
  WBC: 131.2 x10_2/uL
  KIDNEY_L: 1.4 g
  KIDNEY_R: 1.4 g
  KIDNEY_TOTAL: 2.8 g
  LIVER: 17.3 g
  A/G: 1.4
  ALP: 669.2 IU/L
  ALT: 31.4 IU/L
  AST: 62.4 IU/L
  BUN: 20 mg/dL
  CRE: 0.6 mg/dL
  Ca: 9.7 mg/dL
  Cl: 103.8 meq/L
  DBIL: 0.02 mg/dL
  GLC: 189.2 mg/dL
  IP: 5.7 mg/dL
  K: 4.4 meq/L
  LDH: 102.8 IU/L
  Na: 139.6 meq/L
  PL: 136.8 mg/dL
  RALB: 3.7 g/dL
  TBIL: 0.4 mg/dL
  TC: 61.4 mg/dL
  TG: 154.4 mg/dL
  TP: 6.2 g/dL
  gamma-GTP: 1.2 IU/L
